In article PMC11203266, “Continuous evolution of compact protein degradation tags regulated by selective molecular glues” (Science (New York, N.Y.), 2024):

How the values were obtained:
[1] = test system: SD40 fusions with Nluc, Fluc, and PRKRA; experiment: Immunoblot, degradation of exogenously expressed SD40 fusion proteins in HEK293T cells; assay type: cell-based, human
Procedure: To test the versatility of SD40, we generated five stable HEK293T cell lines that exogenously express N- or C-terminal SD40 fusions with Nluc, Fluc, and the kinase activator PRKRA. […] To investigate whether SD40 targets unintended neosubstrates for degradation, we performed global proteomics using HEK293T cells stably expressing SD40–eGFP.
HEK293T or K562 cells were plated at a density of 1.6 x 10^5 cells/well in a 24-well plate coated with poly-D-lysine (Corning) in 1 mL media (DMEM + 10% FBS for HEK293T cells and RPMI + 10% FBS for K562 cells). After 16–18 hrs, cells were treated with either DMSO or the indicated concentration of small molecules to a 0.5% final concentration of DMSO. Plates were incubated at 37 °C, 5% CO2 for 24 hours for all cell lines except endogenously tagged PLK1–SD40 HEK293T cells, which were incubated for 2 hours. Cells were washed with PBS and then lysed for 30 minutes at 4 °C in radioimmunoprecipitation assay (RIPA; 25 mM Tris-HCl, 150 mM NaCl, 1% NP-40, 1% sodium deoxycholate, 0.1% SDS, pH ~ 7.6) buffer containing 1 mM phenylmethylsulfonyl fluoride (PMSF; Sigma Aldrich) and 1 x EDTA-free protease inhibitor cocktail (Roche). Lysates were centrifuged for 20 min @18,000 x g to isolate the soluble fractions. Protein concentration in clarified lysates was quantified using Pierce BCA Protein Assay Kit (Thermo Scientific) according to the manufacturer’s protocol. Clarified lysates were mixed with NuPAGE LDS Sample Buffer (Thermo NP0007) containing 10 mM DTT and boiled for 10 minutes. Gel electrophoresis was performed on boiled samples using polyacrylamide gels (Invitrogen NP0329BOX) with equal amounts of total protein in each lane. Proteins were transferred to nitrocellulose membranes (Invitrogen IB23001) using the iBlot 2 (Invitrogen IB21001) P0 protocol. After transfer, membranes were blocked in blocking buffer (50 mM Tris-HCl, 150 mM NaCl, 0.5% Tween-20, 1% bovine serum albumin, pH 7.4) for 1 hr at RT and then incubated with primary antibody overnight at 4 °C in blocking buffer. […]

CRBN = CRBN (Homo sapiens, UniProt Q96SW2); experiment: In-cell CRBN engagement NanoBRET; details: for EC50: EC50 CRBN engagement
CRBN, sequence (Q96SW2 whole entry): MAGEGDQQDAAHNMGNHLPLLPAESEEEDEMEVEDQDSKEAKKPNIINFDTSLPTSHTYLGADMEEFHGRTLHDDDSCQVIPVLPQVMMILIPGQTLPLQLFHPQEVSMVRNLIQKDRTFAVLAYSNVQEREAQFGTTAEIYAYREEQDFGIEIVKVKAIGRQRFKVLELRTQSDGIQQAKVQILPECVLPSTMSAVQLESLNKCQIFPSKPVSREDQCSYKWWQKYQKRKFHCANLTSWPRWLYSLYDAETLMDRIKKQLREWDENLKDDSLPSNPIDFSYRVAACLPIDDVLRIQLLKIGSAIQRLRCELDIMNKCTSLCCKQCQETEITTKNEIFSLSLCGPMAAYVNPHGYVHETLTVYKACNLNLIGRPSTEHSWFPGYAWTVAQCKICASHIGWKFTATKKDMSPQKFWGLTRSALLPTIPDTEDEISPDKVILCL
CRBN, sequence (Q16531 whole entry partner): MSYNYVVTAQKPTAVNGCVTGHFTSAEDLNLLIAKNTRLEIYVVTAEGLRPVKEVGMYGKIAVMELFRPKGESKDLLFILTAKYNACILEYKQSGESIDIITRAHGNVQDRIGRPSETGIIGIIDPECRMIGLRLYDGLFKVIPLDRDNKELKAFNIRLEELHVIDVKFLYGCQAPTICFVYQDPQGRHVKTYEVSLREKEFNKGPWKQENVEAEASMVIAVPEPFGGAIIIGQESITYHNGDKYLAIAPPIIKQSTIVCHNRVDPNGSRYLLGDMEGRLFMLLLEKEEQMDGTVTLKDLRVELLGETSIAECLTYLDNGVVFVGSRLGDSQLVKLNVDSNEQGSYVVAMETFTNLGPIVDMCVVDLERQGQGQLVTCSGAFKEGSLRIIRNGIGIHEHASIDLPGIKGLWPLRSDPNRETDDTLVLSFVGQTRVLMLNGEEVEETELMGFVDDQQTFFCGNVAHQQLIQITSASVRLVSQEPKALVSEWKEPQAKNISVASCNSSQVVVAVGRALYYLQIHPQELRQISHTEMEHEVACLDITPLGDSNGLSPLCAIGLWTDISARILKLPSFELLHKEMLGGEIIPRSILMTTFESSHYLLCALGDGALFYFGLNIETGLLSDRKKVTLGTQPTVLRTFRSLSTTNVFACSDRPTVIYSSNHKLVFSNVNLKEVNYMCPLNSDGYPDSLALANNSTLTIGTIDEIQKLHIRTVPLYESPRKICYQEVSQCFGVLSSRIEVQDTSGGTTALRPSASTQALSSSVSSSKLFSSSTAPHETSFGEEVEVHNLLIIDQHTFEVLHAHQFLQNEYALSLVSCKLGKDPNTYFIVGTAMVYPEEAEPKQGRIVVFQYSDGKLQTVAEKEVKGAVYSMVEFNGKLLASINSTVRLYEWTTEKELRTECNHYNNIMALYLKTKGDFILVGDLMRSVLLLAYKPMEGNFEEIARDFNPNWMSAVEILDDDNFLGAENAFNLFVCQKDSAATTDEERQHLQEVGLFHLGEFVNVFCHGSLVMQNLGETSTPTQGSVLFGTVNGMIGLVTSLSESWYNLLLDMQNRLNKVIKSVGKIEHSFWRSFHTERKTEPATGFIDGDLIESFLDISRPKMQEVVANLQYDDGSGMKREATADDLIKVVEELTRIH
Procedure: U2OS or HEK293T cells were transfected with a combination of NanoLuc-CRBN fusion vector (1 μg/ 100,000 cells) and DDB1 expression vector (4 μg/ 100,000 cells) encoded plasmid (Promega N2910) using Lipofectamine 3000 reagent (Thermo Fischer Scientific, L3000015). […] The transfected cells were washed with PBS, trypsinized, and plated in a 384-well white microplate (Corning, 3765) at 3000 cells in 34 μL Opti-MEM I reduced serum medium per well. […] The plates were incubated for 1 hour at 37 °C, 5% CO2. After incubation plates were brought to room temperature and incubated with 3X complete substrate plus inhibitor solution (20 μL) for 3 minutes at room temperature before measuring BRET signal on an EnVision multilabel plate reader with EnVision Manager 1.13 (PerkinElmer). At each liquid handling step, the plates were shaken on a Thermo Fisher combi instrument followed by centrifugation at 100 xg for 1 minute.
Lipofectamine 2000 was used in place of lipofectamine 3000 for all transfections, 1 μg of pSD192A was included for generating the SD40-PRKRA overexpression sample, and the assay was performed using 2,500 cells per well.
NanoBRET values for the in-cell CRBN engagement assay were calculated as follows:
2) mean corrected NanoBRET ratio mBU = Mean mBU experimental − Mean mBU no-ligand control.
EC50 values were calculated in GraphPad Prism (v9.5.1), using an inhibitor vs. response variable slope (four parameter) model.

MM.1S cells = experiment: Whole-transcriptome RNA-Seq; assay type: cell-based, human; details: for differentially expressed genes: 1 μM, 48 hrs, fold-change > 2, FDR-corrected P < 0.01
Procedure: The effect of small molecule treatment on transcriptome-wide RNA expression was evaluated using bulk RNA sequencing of 5 biological replicates per sample. […] 48 hours following treatment, cells were washed with PBS and lysed in RLT buffer (Qiagen) with β-mercaptoethanol. Total RNA from each sample was purified from 2–4×10^5 cells using the RNeasy Mini Kit (Qiagen) with on-column DnaseI digestion and eluted in nuclease-free water. Polyadenylated RNA was sequenced using Smart-seq2 as previously described ([82]) with two changes: 20 ng of total RNA and Maxima Rnase H-minus reverse transcriptase (Thermo Fisher) were used for the initial reverse transcription step. The resulting cDNA libraries were sequenced on an Illumina NextSeq 550 High Output kit with the following run parameters: 37 cycles for read1, 37 cycles for read2, 8 cycles for index1, and 8 cycles for index2.
Sequencing data were demultiplexed with bcl2fastq and roughly 40 million paired-end reads were obtained per sample. Transcript-level quantification was performed using kallisto ([83]) with the homo sapiens GRCh38 reference transcriptome and with bootstrapping. Differential expression analysis at the gene level was conducted using Deseq2 with batch correction of biological replicates ([84]). To pre-filter low count genes, only genes with at least 10 counts in at least 5 samples were analyzed. Compared between conditions, genes with a transcript abundance fold-change > 2 and with a false discovery rate-corrected P-value < 0.01 were called as differentially expressed.

CRBNCTD = CRBNCTD (Homo sapiens, UniProt Q96SW2); experiment: CRBNCTD MG-PACE circuit luminescence assay; assay type: cell-based; details: pomalidomide; degron SD0; vs DMSO
CRBNCTD, sequence (Q96SW2 318-426 limits assumed): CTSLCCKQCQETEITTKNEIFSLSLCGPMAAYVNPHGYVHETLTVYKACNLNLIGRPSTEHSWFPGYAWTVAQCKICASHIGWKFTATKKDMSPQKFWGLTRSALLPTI
From the text: We also explored anchoring the circuit with the CRBN C-terminal domain (CTD) alone, which contains the IMiD binding pocket (Fig. 2B) ([65], [69]). […] We attributed the difference in maximum circuit activation to poor expression of full-length CRBN in E. coli. In our initial efforts, we used the CRBNCTD MG-PACE circuit, hypothesizing that higher activation (lower selection stringency) would better support weak-binding SD0 variants in the early stages of evolution.
Chemically competent S2060 cells were co-transformed with accessory and complementary plasmids (Table S1). Cells were plated on LB agar supplemented with carbenicillin, spectinomycin, and tetracycline and grown overnight at 37 °C. Single colonies were seeded in 1 mL DRM with carbenicillin and spectinomycin and grown overnight in a 37 °C shaker at 220 rpm. Overnight cultures were back-diluted 1:100 in DRM with carbenicillin and spectinomycin and grown at 37 °C with shaking until OD600 values reached 0.3-0.4. Polymyxin B nonapeptide (PMBN) was added to a final concentration of 3 μg/mL culture from a 1000x stock (3 mg/mL in DMSO). […] 96-well plates were then incubated in an Infinite M1000 Pro microplate reader (Tecan) at 37 °C with continuous shaking for ~1 hour prior to reading A600 nm and luminescence values. Raw luminescence values were then divided by the corresponding A600 nm values to normalize to cell density.

| SMILES | time at which PRKRA degradation occurred ([1]; 1 μM PT-179, SD40-PRKRA) | time to near complete PRKRA degradation (in words) ([1]; 1 μM PT-179, SD40-PRKRA) | degradation of N- or C-terminal SD40 fusion constructs (in words) ([1]; 24 hrs, 1 nM-10 µM) | EC50 (CRBN; HEK293T cells) | EC50 (CRBN; HEK293T cells, No SD40 (fig. S16 protocol)) | EC50 (CRBN; HEK293T cells, SD40–PRKRA low expression (single-copy lentiviral integration)) | EC50 (CRBN; HEK293T cells, SD40–PRKRA overexpression (plasmid transfection)) | EC50 (CRBN; U2OS cells) | lower apparent potency than pomalidomide (CRBN; HEK293T and U2OS cells) | increase in apparent affinity for CRBN (CRBN; HEK293T cells overexpressing SD40–PRKRA) | increase in apparent affinity for CRBN (CRBN; HEK293T cells stably expressing SD40–PRKRA) | differentially expressed genes (MM.1S cells) | decrease in the frequency of gene expression perturbation (MM.1S cells; PT-179 vs pomalidomide) | transcriptional activation at the highest dose (CRBNCTD) |
| --- | --- | --- | --- | --- | --- | --- | --- | --- | --- | --- | --- | --- | --- | --- |
| O=C1CCC(N2C(=O)c3ccc(N4CCOCC4)cc3C2=O)C(=O)N1 (stereo not drawn) [PT-179] | ≤ 10 min | nearly complete within one hour | robust dose-dependent degradation | 2880 nM | 641 nM | 350 nM | 169 nM | 979 nM | 7 fold | 3.8 fold | 1.8 fold | three | 475 fold |  |
| Nc1cccc2c1C(=O)N(C1CCC(=O)NC1=O)C2=O (stereo not drawn) [pomalidomide, reference compound] |  |  |  |  |  |  |  |  |  |  |  | 1,426 genes |  | 13 fold |
